The record followed here is patent US9777001B2 (priority 2014, dated 2017).

The target in one assay is human plasma kallikrein (Homo sapiens, UniProt P03952). In words: biochemical. To be noted: purified human plasma kallikrein, substrate S-2302, sodium phosphate buffer pH 7.5.
Another assay deals with human Factor XIa (Homo sapiens, UniProt P03951). In words: biochemical. Particulars: purified human Factor XIa, substrate S-2366, HEPES buffer pH 7.4.

Each structure is given as a SMILES string. Where a name gives a salt, the structure may show the parent alone.

Chain of human plasma kallikrein (P03952 391-638 limits assumed): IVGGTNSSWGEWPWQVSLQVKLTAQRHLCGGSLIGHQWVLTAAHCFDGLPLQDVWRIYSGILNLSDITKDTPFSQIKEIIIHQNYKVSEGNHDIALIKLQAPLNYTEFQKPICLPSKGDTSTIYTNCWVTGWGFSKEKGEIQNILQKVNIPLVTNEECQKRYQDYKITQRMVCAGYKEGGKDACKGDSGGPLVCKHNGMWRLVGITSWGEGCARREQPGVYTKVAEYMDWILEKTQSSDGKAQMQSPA
Chain of human plasma kallikrein (P03952 20-390 partner limits assumed): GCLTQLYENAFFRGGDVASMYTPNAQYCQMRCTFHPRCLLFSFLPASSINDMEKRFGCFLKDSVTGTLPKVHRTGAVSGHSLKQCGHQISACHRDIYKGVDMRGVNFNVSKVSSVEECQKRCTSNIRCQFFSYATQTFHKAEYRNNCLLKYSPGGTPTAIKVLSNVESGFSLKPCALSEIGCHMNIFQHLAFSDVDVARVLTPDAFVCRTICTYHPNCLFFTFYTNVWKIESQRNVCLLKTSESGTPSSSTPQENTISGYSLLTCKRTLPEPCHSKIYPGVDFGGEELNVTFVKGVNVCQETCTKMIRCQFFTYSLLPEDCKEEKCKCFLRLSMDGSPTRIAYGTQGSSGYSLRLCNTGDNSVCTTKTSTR
Chain of human Factor XIa (P03951 388-625 limits assumed): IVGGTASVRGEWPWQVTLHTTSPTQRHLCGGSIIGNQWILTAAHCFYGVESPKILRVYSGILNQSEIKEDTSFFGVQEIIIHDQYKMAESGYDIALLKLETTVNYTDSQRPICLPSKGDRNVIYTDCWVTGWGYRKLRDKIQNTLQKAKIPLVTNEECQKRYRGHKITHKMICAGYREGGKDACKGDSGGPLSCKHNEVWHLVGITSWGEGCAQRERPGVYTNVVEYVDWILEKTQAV
Chain of human Factor XIa (P03951 19-387 partner limits assumed): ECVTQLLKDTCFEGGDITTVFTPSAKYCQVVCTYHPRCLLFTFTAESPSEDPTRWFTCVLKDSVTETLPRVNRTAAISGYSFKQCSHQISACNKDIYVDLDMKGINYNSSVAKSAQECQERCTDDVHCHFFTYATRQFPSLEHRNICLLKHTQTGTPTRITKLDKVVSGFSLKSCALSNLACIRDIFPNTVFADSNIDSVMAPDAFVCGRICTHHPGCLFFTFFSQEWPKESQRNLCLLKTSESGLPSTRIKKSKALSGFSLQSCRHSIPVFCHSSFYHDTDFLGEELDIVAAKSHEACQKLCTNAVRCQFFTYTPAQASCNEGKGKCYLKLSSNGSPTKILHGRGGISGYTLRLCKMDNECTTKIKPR

As usually defined, the Ki is a dissociation constant, usually derived from enzyme kinetics or from competition with a known ligand. As for `C[C@@H]1CCC[C@H](n2cnc(-c3cc(Cl)ccc3-n3cc(C(F)(F)F)nn3)cc2=O)c2cc(ccn2)-c2ccc(CO)cc2NC1=O` [Example 37, (10R,14S)-14-(4-{5-chloro-2-[4-(trifluoromethyl)-1H-1,2,3-triazol-1-yl]phenyl}-6-oxo-1,6-dihydropyrimidin-1-yl)-5-(hydroxymethyl)-10-methyl-8,16-diazatricyclo[13.3.1.0^2,7]nonadeca-1(19),2(7),3,5,15,17-hexaen-9-one trifluoroacetate], the figures for the Ki at human plasma kallikrein and on human Factor XIa were 18 nM and 0.18 nM, respectively.
Consider `C[C@@H]1CCC[C@H](n2cnc(-c3cc(Cl)ccc3-n3cc(C(F)(F)F)nn3)cc2=O)c2cc(ccn2)-c2ccc(C(N)=O)cc2NC1=O` [Example 76, (10R,14S)-14-(4-{5-chloro-2-[4-(trifluoromethyl)-1H-1,2,3-triazol-1-yl]phenyl}-6-oxo-1,6-dihydropyrimidin-1-yl)-10-methyl-9-oxo-8,16-diazatricyclo [13.3.1.0^2,7]nonadeca-1(19),2(7),3,5,15,17-hexaene-5-carboxamide], for which the figures for the Ki at human plasma kallikrein and at human Factor XIa were 36 nM and 0.44 nM, respectively.
With `Cc1ccc(-n2cc(C(F)(F)F)nn2)c(-c2cc(=O)n([C@H]3CCC[C@@H](C)C(=O)Nc4ccccc4-c4ccnc3c4)cn2)c1` [Example 81, (10R,14S)-10-methyl-14-(4-{5-methyl-2[4-(trifluoromethyl)-1H-1,2,3-triazol-1-yl]phenyl}-6-oxo-1,6-dihydropyrimidin-1-yl)-8,16-diazatricyclo [13.3.1.0^2,7]nonadeca-1(19),2(7),3,5,15,17-hexaen-9-one], the Ki at human plasma kallikrein is 66 nM; at human Factor XIa, 0.63 nM.
As for `Cc1ccc(-n2cc(C(F)(F)F)nn2)c(-c2cc(=O)n([C@H]3CCC[C@@H](C)C(=O)Nc4cc(C#N)ccc4-c4ccnc3c4)cn2)c1` [Example 82, (10R,14S)-10-methyl-14-(4-{5-methyl-2-[4-(trifluoromethyl)-1H-1,2,3-triazol-1-yl]phenyl}-6-oxo-1,6-dihydropyrimidin-1-yl)-9-oxo-8,16-diazatricyclo [13.3.1.0^2,7]nonadeca-1(19),2(7),3,5,15,17-hexaene-5-carbonitrile], the figures for the Ki at human plasma kallikrein and on human Factor XIa were 176 nM and 1.9 nM, respectively.
For the molecule `C[C@@H]1CCC[C@H](n2cnc(-c3cc(Cl)ccc3-n3cc(Cl)nn3)cc2=O)c2cc(ccn2)-c2ccc(OC(F)F)cc2NC1=O` [Example 93, (10R,14S)-14-{4-[5-chloro-2-(4-chloro-1H-1,2,3-triazol-1-yl)phenyl]-6-oxo-1,6-dihydropyrimidin-1-yl}-5-(difluoromethoxy)-10-methyl-8,16-diazatricyclo [13.3.1.0^2,7]nonadeca-1(19),2(7),3,5,15,17-hexaen-9-one trifluoroacetate], the Ki was found to be 4000 nM at human plasma kallikrein and 100 nM on human Factor XIa.
Turning to `COc1ccc(-n2cc(C(F)(F)F)nn2)c(-c2cc(=O)n([C@H]3CCC[C@@H](C)C(=O)Nc4ccc(F)cc4-c4cncc3c4)cn2)c1` [Example 107, (10R,14S)-4-Fluoro-14-(4-{5-methoxy-2-[4-(trifluoromethyl)-1H-1,2,3-triazol-1-yl]phenyl}-6-oxo-1,6-dihydropyrimidin-1-yl)-10-methyl-8,17-diazatricyclo[13.3.1.0^2,7]nonadeca-1(19),2(7),3,5,15,17-hexaen-9-one], the Ki was found to be 1400 nM at human plasma kallikrein and 142 nM on human Factor XIa.
As for `C[C@@H]1CCC[C@H](n2cnc(-c3cc(Cl)ccc3-n3cc(Cl)nn3)cc2=O)c2ccnc(c2)-c2ccc(C#N)cc2NC1=O` [Example 112, (10R,14S)-14-{4-[5-chloro-2-(4-chloro-1H-1,2,3-triazol-1-yl)phenyl]-6-oxo-1,6-dihydropyrimidin-1-yl}-10-methyl-9-oxo-8,18-diazatricyclo [13.3.1.0^2,7]nonadeca-1(19),2(7),3,5,15,17-hexaene-5-carbonitrile], the values for the Ki on human plasma kallikrein and on human Factor XIa were 19 nM and 0.22 nM, respectively.
Turning to `C[C@@H]1CCC[C@H](n2cnc(-c3c(-n4cc(Cl)nn4)ccc(Cl)c3F)cc2=O)c2cc(ccn2)-c2cc(F)ccc2NC1=O` [Example 142, (10R,14S)-14-{4-[3-chloro-6-(4-chloro-1H-1,2,3-triazol-1-yl)-2-fluorophenyl]-6-oxo-1,6-dihydropyrimidin-1-yl}-4-fluoro-10-methyl-8,16-diazatricyclo [13.3.1.0^2,7]nonadeca-1(19),2(7),3,5,15,17-hexaen-9-one trifluoroacetate], the Ki on human plasma kallikrein is 7 nM; on human Factor XIa, 1 nM.
On to `C[C@H]1CCC[C@H](n2cnc(-c3cc(Cl)ccc3-n3cc(C(F)(F)F)nn3)cc2=O)c2ccnc(c2)-c2cc(F)ccc2NC1=O` [Example 145, (10S,14S)-14-(4-{5-chloro-2-[4-(trifluoromethyl)-1H-1,2,3-triazol-1-yl]phenyl}-6-oxo-1,6-dihydropyrimidin-1-yl)-4-fluoro-10-methyl-8,18-diazatricyclo[13.3.1.0^2,7]nonadeca-1(19),2,4,6,15,17-hexaen-9-one], for which the inhibition constant (Ki) turned out to be 100 nM on human plasma kallikrein and 1.6 nM on human Factor XIa.
